Data as given in patent publication US9265774B2, “Methods, compounds and pharmaceutical compositions for treating anxiety and mood disorders” (New York University, priority 2011, dated 2016).

Assays:
[1] = tested on: model of chronic depression in mice (repeated forced swim)
Excerpt: We administered the pro-drugs shortly before one or more tests of antidepressant activity including reversal of immobility during tail suspension and forced swimming and attenuation of anhedonia produced by endotoxin administration. […] (Stone et al., Eur. J. Pharmacol. (2001) 420: 97-102) Because dp6FNE like all other antidepressants has an initial anorexic effect and acutely reduces the consumption of sweet solutions, in the test for anhedonia it was necessary to employ a non-nutritive hedonic behavior, FUST (sniffing of estrous female urine). […] (Stone et al., Neuropsychopharmacology (2011) 14: 319-331); Sun et al., J. Neurosci. Methods (2003) 126:35-40; Sun et al., Behavioral Pharmacology (2008) 19: 334-338).
Mice were swum for 15 min/d on 4 d and tested for the response to acute i.p dp6FNE (1 or 3 mg/kg) alone or in combination with 8-OHDPAT (0.05 mg/kg) and corticosterone (3 mg/kg) on the 5th and final swim (15 min after drug administration). […] Comparison groups receiving currently available antidepressants were treated acutely i.p. or chronically (14 d osmotic pumps) with either desmethylimipramine (DMI) (10 mg/kg), fluoxetine (5 mg/kg), escitalopram (5 mg/kg), bupropion (10 mg/kg) or ketamine (10 mg/kg).
Although corticosteroids are well known to produce depression (Gourley et al., Biol Psychiatry (2008) 64: 884-890), this occurs at high doses only. […] Mice were swum for 3 d and given either vehicle (0.8% ethanol) or corticosterone (12.5 μg/ml) in their drinking water.
As described in Example 4a, the cocktail was tested in a mouse model of chronic depression (RFS).

Fos expression in the LC = Fos expression in the LC during the RFS model; assay type: in vivo, mice; conditions: dp6FNE 3 mg/kg i.p. 15 min prior to the 5th swim, with prazosin 0.2 mg/kg; swum animals, versus vehicle
Experimental: In the RFS study, mice were subjected to 4 daily 15 min swims as described above and were injected i.p. with either vehicle or dp6FNE (3 mg/kg) 15 min prior to the 5th swim. In the TST study, animals were injected similarly before a 6 min test. […] The animals were anesthetized and perfused for immuno-histochemistry 70 min after the start of the swim or tail suspension. Brains were processed as described previously for double-label immunofluorescent Fos/tyrosine hydroxylase staining of all sections through the LC and for single-label Fos staining through the full PVH (Stone et al., Brain Res (2009) 1291: 21-31). […] In the tail suspended mice the analogous reductions were 53.5±7.2% (LC) and 36.7±3.1 (PVH). […] These findings thus indicate that a dose of […] dp6FNE that has preferential inhibitory effects on the LC during depression exists.

## CC(C)(C)C(=O)Oc1cc(F)c(C(O)CN)cc1OC(=O)C(C)(C)C (stereo not drawn) [dp6FNE, dipivalyl-6-fluoronorepinephrine]
[1]; dp6FNE 0.5 mg/kg, i.p., repeated daily
  persistence of anti-immobility effect: at least 11 daily treatments
[1]; dp6FNE 1 mg/kg acute i.p., 15 min before 5th swim, with prazosin 0.2 mg/kg
  increase of distance swum: +77.5±5.2%
[1]; dp6FNE 3 mg/kg acute i.p., 15 min before 5th swim, with prazosin 0.2 mg/kg
  decrease of immobility, maximum effect: −39.4±16.6%
[1]; repeated daily treatment, no formal measures
  signs of toxicity (reduced arousal, disheveled fur coat) after repeated treatment: no obvious signs of toxicity
[1]; tube fed with prazosin 0.2 mg/kg, 45 min prior to the 5th swim
  effect of oral administration on immobility: dose-dependent reduction in immobility
Fos expression in the LC
  reduction in gene expression (Fos) in the LC: 33.6±6.8
